Assays:
[1] = target: T1, GDP loaded biotinylated KRas^G12C protein (Homo sapiens, UniProt P01116, G12C); assay: KRasG12C functional assay; type: biochemical; details: HTRF FRET readout of SOS-mediated nucleotide exchange and GST-Raf RBD binding; samples incubated for 4 hrs; read-out: KRasG12C functional assay IC50 value
T1 construct: biotin (biotinylated); made in house
Procedure, shortened: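 Biotinylated GDP-loaded KRasG12C exchange driven by 0.08 μM SOS with 0.6 μM GTPγS, read by HTRF between europium and XL665 as active KRas binds 20 nM GST-Raf RBD. Buffer: 20 mM HEPES pH 7.5, 5 mM MgCl2, 150 mM NaCl, 0.01% Tween 20. IC50 from normalised FRET dose-response fits.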

[2] = target: T1, GDP loaded biotinylated KRas^G12C protein; assay: KRasG12C mass spectrometry adducting assay; type: binding; details: test compound final concentration 10 μM, 4 μM KRasG12C, react for 4 hours
Procedure, shortened: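 GDP-loaded biotinylated KRasG12C incubated with compound in 20 mM HEPES pH 7.5, 5 mM MgCl2, 150 mM NaCl, then analysed by LC–QTOF MS.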

T1 sequence (P01116 1-188 isoform P01116-2 G12C): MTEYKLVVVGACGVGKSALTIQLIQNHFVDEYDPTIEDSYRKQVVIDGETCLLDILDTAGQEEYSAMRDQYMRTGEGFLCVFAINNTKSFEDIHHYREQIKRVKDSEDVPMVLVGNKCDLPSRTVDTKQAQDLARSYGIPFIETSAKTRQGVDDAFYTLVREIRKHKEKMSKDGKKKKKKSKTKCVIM

C=CC(=O)N1CCN2c3ncnc4cc(-c5cccc6ncoc56)c(Cl)c(c34)OC[C@@H]2C1 [Example 58, 1-[(8aS)-5-(1,3-Benzoxazol-7-yl)-6-chloro-8a,9,11,12-tetrahydropyrazino[2′,1′:3,4][1,4]oxazepino[5,6,7-de]quinazolin-10(8H)-yl]prop-2-en-1-one]
IC50 [1]: 7090 nM
KRasG12C M.S. Binding Mean adduct % [2]: 42%

C=CC(=O)N1CCN2c3ncnc4cc(-c5cccc(CC#N)c5)c(Cl)c(c34)OC[C@@H]2C1 [Example 59, {3-[(8aS)-10-Acryloyl-6-chloro-8,8a,9,10,11,12-hexahydropyrazino[2′,1′:3,4][1,4]oxazepino[5,6,7-de]quinazolin-5-yl]phenyl}acetonitrile]
IC50 [1]: 5850 nM
KRasG12C M.S. Binding Mean adduct % [2]: 42%

C=CC(=O)N1CCN2c3ncnc4cc(-c5ccccc5F)c(Cl)c(c34)OC[C@@H]2C1 [Example 60, 1-[(8aS)-6-Chloro-5-(2-fluorophenyl)-8a,9,11,12-tetrahydropyrazino[2′,1′:3,4][1,4]oxazepino[5,6,7-de]quinazolin-10(8H)-yl]prop-2-en-1-one]
IC50 [1]: 437 nM
KRasG12C M.S. Binding Mean adduct % [2]: 100%

C=CC(=O)N1CCN2c3ncnc4cc(-c5cccc6[nH]ncc56)c(Cl)c(c34)OC[C@@H]2C1 [Example 61, 1-[(8aS)-6-Chloro-5-(1H-indazol-4-yl)-8a,9,11,12-tetrahydropyrazino[2′,1′:3,4][1,4]oxazepino[5,6,7-de]quinazolin-10(8H)-yl]prop-2-en-1-one]
IC50 [1]: 2220 nM
KRasG12C M.S. Binding Mean adduct % [2]: 64%

C=CC(=O)N1CCN2c3ncnc4cc(-c5cccc(F)c5F)c(Cl)c(c34)OC[C@@H]2C1 [Example 62, 1-[(8aS)-6-Chloro-5-(2,3-difluorophenyl)-8a,9,11,12-tetrahydropyrazino[2′,1′:3,4][1,4]oxazepino[5,6,7-de]quinazolin-10(8H)-yl]prop-2-en-1-one]
IC50 [1]: 355 nM
KRasG12C M.S. Binding Mean adduct % [2]: 100%

C=CC(=O)N1CCN2c3ncnc4cc(-c5ccccc5O)c(Cl)c(c34)OC[C@@H]2C1 [Example 63, 1-[(8aS)-6-Chloro-5-(2-hydroxyphenyl)-8a,9,11,12-tetrahydropyrazino[2′,1′:3,4][1,4]oxazepino[5,6,7-de]quinazolin-10(8H)-yl]prop-2-en-1-one]
IC50 [1]: 896 nM
KRasG12C M.S. Binding Mean adduct % [2]: 87%

C=CC(=O)N1CCN2c3ncnc4cc(-c5ccc(F)cc5C)c(Cl)c(c34)OC[C@@H]2C1 [Example 64, 1-[(8aS)-6-Chloro-5-(4-fluoro-2-methylphenyl)-8a,9,11,12-tetrahydropyrazino[2′,1′:3,4][1,4]oxazepino[5,6,7-de]quinazolin-10(8H)-yl]prop-2-en-1-one]
IC50 [1]: 1570 nM
KRasG12C M.S. Binding Mean adduct % [2]: 75%

C=CC(=O)N1CCN2c3ncnc4cc(-c5ccccc5CO)c(Cl)c(c34)OC[C@@H]2C1 [Example 65, 1-[(8aS)-6-Chloro-5-[2-(hydroxymethyl)phenyl]-8a,9,11,12-tetrahydropyrazino[2′,1′:3,4][1,4]oxazepino[5,6,7-de]quinazolin-10(8H)-yl]prop-2-en-1-one]
IC50 [1]: 3460 nM
KRasG12C M.S. Binding Mean adduct % [2]: 49%

C=CC(=O)N1CCN2c3ncnc4cc(-c5ccc(F)cc5F)c(Cl)c(c34)OC[C@@H]2C1 [Example 66, 1-[(8aS)-6-Chloro-5-(2,4-difluorophenyl)-8a,9,11,12-tetrahydropyrazino[2′,1′:3,4][1,4]oxazepino[5,6,7-de]quinazolin-10(8H)-yl]prop-2-en-1-one]
IC50 [1]: 1450 nM
KRasG12C M.S. Binding Mean adduct % [2]: 84%

C=CC(=O)N1CCN2c3ncnc4cc(-c5cnccc5C#N)c(Cl)c(c34)OC[C@@H]2C1 [Example 67, 3-[(8aS)-10-Acryloyl-6-chloro-8,8a,9,10,11,12-hexahydropyrazino[2′,1′:3,4][1,4]oxazepino[5,6,7-de]quinazolin-5-yl]pyridine-4-carbonitrile]
IC50 [1]: 6530 nM
KRasG12C M.S. Binding Mean adduct % [2]: 17%

C=CC(=O)N1CCN2c3ncnc4cc(-c5ccccc5C#N)c(Cl)c(c34)OC[C@@H]2C1 [Example 68, 2-[(8aS)-10-Acryloyl-6-chloro-8,8a,9,10,11,12-hexahydropyrazino[2′,1′:3,4][1,4]oxazepino[5,6,7-de]quinazolin-5-yl]benzonitrile]
IC50 [1]: 1470 nM
KRasG12C M.S. Binding Mean adduct % [2]: 62%

C=CC(=O)N1CCN2c3nc(N4CCOCC4)nc4cc(-c5c(C)ccc6[nH]ncc56)c(Cl)c(c34)OC[C@@H]2C1 [Example 70, 1-[(8aS)-6-chloro-5-(5-methyl-1H-indazol-4-yl)-2-(morpholin-4-yl)-8a,9,11,12-tetrahydropyrazino[2′,1′:3,4][1,4]oxazepino[5,6,7-de]quinazolin-10 (8H)-yl]prop-2-en-1-one]
IC50 [1]: 445 nM
KRasG12C M.S. Binding Mean adduct % [2]: 67%

C=CC(=O)N1CCN2c3nc(N4CC(N(C)C)C4)nc4cc(-c5c(C)ccc6[nH]ncc56)c(Cl)c(c34)OC[C@@H]2C1 [Example 75, 1-((8aS)-6-chloro-2-(3-(dimethylamino)azetidin-1-yl)-5-(5-methyl-1H-indazol-4-yl)-8a,9,11,12-tetrahydropyrazino[2′,1′:3,4][1,4]oxazepino[5,6,7-de]quinazolin-10 (8H)-yl)prop-2-en-1-one]
IC50 [1]: 19 nM
KRasG12C M.S. Binding Mean adduct % [2]: 57%

C=CC(=O)N1CCN2c3nc(NCCN(C)C)nc4cc(-c5c(C)ccc6[nH]ncc56)c(Cl)c(c34)OC[C@@H]2C1 [Example 78, 1-((8aS)-6-Chloro-2-((2-(dimethylamino)ethyl)amino)-5-(5-methyl-1H-indazol-4-yl)-8a,9,11,12-tetrahydropyrazino[2′,1′:3,4][1,4]oxazepino[5,6,7-de]quinazolin-10 (8H)-yl)prop-2-en-1-one]
IC50 [1]: 37 nM
KRasG12C M.S. Binding Mean adduct % [2]: 81%

Reference: patent US20220127281A1, “HETEROARYL COMPOUNDS THAT INHIBIT G12C MUTANT RAS PROTEINS” (AstraZeneca AB, priority 2017, published 2022)
